From PubChem BioAssay AID1599 (NINDS Approved Drug Screening Program, 2009)
pEC50: −log10 of the molar value.

system: C. elegans polyQ-huntingtin mechanosensory neurons, touch response; assay: restoration of touch response, mutant HTT neurons – whole organism, C. elegans mechanosensory neurons, N-terminal huntingtin (AID 1599)

Row | SMILES | pEC50
1 | COc1ccc(Cl)cc1C(=O)NCCc1ccc(S(=O)(=O)NC(=O)NC2CCCCC2)cc1 | 5.64
2 | CC(C)NNC(=O)c1ccncc1 | 4.80
3 | Clc1ccc(COC(Cn2ccnc2)c2ccc(Cl)cc2Cl)cc1 (stereo unspecified) | 5.52
4 | CN1CCC(=C2c3ccccc3Sc3ccccc32)CC1 | 4.62
5 | CN(C)CCCN1c2ccccc2CCc2ccc(Cl)cc21 | 4.55
6 | O=c1c2ccccc2[se]n1-c1ccccc1 | 6.70
7 | CNc1ccc2oc(C[C@@H]3OC4(CC[C@@H]3C)O[C@H](C(C)C(=O)c3ccc[nH]3)[C@H](C)C[C@H]4C)nc2c1C(=O)O (stereo partly specified) | 5.26
8 | CN1CCN(C2=Nc3cc(Cl)ccc3Nc3ccccc32)CC1 | 5.36
9 | Oc1c(Cl)cc(Cl)c2cccnc12 | 5.52
10 | Clc1ccc(C(OCCN2CCCCC2)c2ccccc2)cc1 (stereo unspecified) | 4.55
11 | CC(C)(C)c1ccc(C(O)CCCN2CCC(C(O)(c3ccccc3)c3ccccc3)CC2)cc1 (stereo unspecified) | 6.05
12 | Cc1cc2cc3c(C)cc(=O)oc3c(C)c2o1 | 5.42
13 | C[C@@H]1O[C@@H](O[C@H]2[C@H](Oc3cc(O)c4c(c3)O[C@H](c3ccc(O)cc3)CC4=O)O[C@H](CO)[C@@H](O)[C@@H]2O)[C@H](O)[C@H](O)[C@H]1O | 6.10
14 | CC(=O)OCC1=C(C(=O)O)N2C(=O)[C@@H](NC(=O)CCCC(N)C(=O)O)C2SC1 (stereo partly specified) | 5.70
15 | OCCN1CCN(CCCN2c3ccccc3Sc3ccc(Cl)cc32)CC1 | 6.00
16 | CC1=C2C(=CO[C@H](C)[C@H]2C)C(=O)C(C(=O)O)=C1O | 4.40
17 | C=Cc1c(C)c2cc3[nH]c(cc4nc(cc5nc(cc1[nH]2)C(C)=C5CCC(=O)O)C(CCC(=O)O)=C4C)c(C)c3C=C | 8.30
18 | C[C@@]1(C(=O)O)CC[C@]2(C)CC[C@]3(C)C4=CC=C5C=C(O)C(=O)C=C5[C@]4(C)CC[C@@]3(C)[C@@H]2C1 | 6.40
19 | CCn1cc(C(=O)O)c(=O)c2cc3c(cc21)OCO3 | 5.64
20 | CNCCC=C1c2ccccc2CCc2ccccc21 | 5.74
21 | O=C1c2ccc(O)c(O)c2C(=O)c2c(O)ccc(O)c21 | 5.55
22 | COc1ccc2cc(CCC(C)=O)ccc2c1 | 5.00
23 | CC1=NN(c2ccccc2)C(=O)C1 | 7.80
24 | O=c1oc2ccccc2c(O)c1Cc1c(O)c2ccccc2oc1=O | 5.38
25 | Cc1cc(O)cc(C)c1Cl | 5.48
26 | CCCCNc1ccc(C(=O)OCCN(C)C)cc1 | 5.24
